{
  "source": "patent US20070015223A1",
  "about": "“Method of detecting substance to be analyzed” (OLYMPUS CORPORATION, priority 2003, published 2007)",
  "key": {"[1]": {"tested_on": "genes to be analyzed in rat liver", "experiment": "microarray expression level ratio, sample amount quantified and matched (Example 5, Table 2)"}, "[2]": {"tested_on": "genes to be analyzed in rat liver", "experiment": "microarray expression level ratio, control experiment with fixed tyramide reaction time of 5 minutes (Table 3)"}, "[3]": {"tested_on": "genes to be analyzed in rat liver", "experiment": "microarray expression level ratio, tyramide reaction time adjusted by GAPDH spot signal intensity (Example 7, Table 1)"}, "[4]": {"conditions": "Phenobal group rat liver, aRNA 200 ng, Deposition Time 5 min."}, "[5]": {"conditions": "rat liver, aRNA 200 ng both, Deposition Time 5 min. both"}, "[6]": {"conditions": "Phenobal group rat liver, aRNA 400 ng, Deposition Time 5 min."}, "[7]": {"conditions": "rat liver, aRNA 400 ng vs 100 ng, Deposition Time 5 min. both, corrected using the internal standard gene"}, "[8]": {"conditions": "Phenobal group rat liver, aRNA 400 ng, Deposition Time 2 min."}, "[9]": {"conditions": "rat liver, aRNA 400 ng vs 100 ng, Deposition Time 2 min. vs 7 min."}},
  "data": [
    {"molecule": "CCC1(c2ccccc2)C(=O)NC(=O)NC1=O", "note": "[Phenobal, phenobarbital]", "values": [
      {"measurement": "Raw Data (spot signal intensity), Gene a", "setting": "[1]; [4]", "value": 650},
      {"measurement": "Raw Data (spot signal intensity), Gene b", "setting": "[1]; [4]", "value": 745},
      {"measurement": "Raw Data (spot signal intensity), Gene c", "setting": "[1]; [4]", "value": 255},
      {"measurement": "Raw Data (spot signal intensity), Gene d", "setting": "[1]; [4]", "value": 2900},
      {"measurement": "Raw Data (spot signal intensity), Gene e", "setting": "[1]; [4]", "value": 550},
      {"measurement": "Raw Data (spot signal intensity), Gene f", "setting": "[1]; [4]", "value": 65},
      {"measurement": "Raw Data (spot signal intensity), Gene GAPDH", "setting": "[1]; internal standard gene, Phenobal group rat liver, aRNA 200 ng, Deposition Time 5 min.", "value": 2500},
      {"measurement": "Ratio (Phenobal/Control), Gene GAPDH", "setting": "[1]; internal standard gene, rat liver, aRNA 200 ng both, Deposition Time 5 min. both", "value": 1.0},
      {"measurement": "Ratio (Phenobal/Control), Gene a", "setting": "[1]; [5]", "value": 1.8},
      {"measurement": "Ratio (Phenobal/Control), Gene b", "setting": "[1]; [5]", "value": 2.6},
      {"measurement": "Ratio (Phenobal/Control), Gene c", "setting": "[1]; [5]", "value": 0.5},
      {"measurement": "Ratio (Phenobal/Control), Gene d", "setting": "[1]; [5]", "value": 2.1},
      {"measurement": "Ratio (Phenobal/Control), Gene e", "setting": "[1]; [5]", "value": 0.2},
      {"measurement": "Ratio (Phenobal/Control), Gene f", "setting": "[1]; [5]", "value": 1.1},
      {"measurement": "Raw Data (spot signal intensity), Gene a", "setting": "[2]; [6]", "value": 1700},
      {"measurement": "Raw Data (spot signal intensity), Gene b", "setting": "[2]; [6]", "value": 1875},
      {"measurement": "Raw Data (spot signal intensity), Gene c", "setting": "[2]; [6]", "value": 625},
      {"measurement": "Raw Data (spot signal intensity), Gene d", "setting": "[2]; [6]", "value": 4095},
      {"measurement": "Raw Data (spot signal intensity), Gene e", "setting": "[2]; [6]", "value": 1250},
      {"measurement": "Raw Data (spot signal intensity), Gene f", "setting": "[2]; [6]", "value": 150},
      {"measurement": "Raw Data (spot signal intensity), Gene GAPDH", "setting": "[2]; internal standard gene, Phenobal group rat liver, aRNA 400 ng, Deposition Time 5 min.", "value": 4095},
      {"measurement": "Ratio (Phenobal/Control), Gene GAPDH", "setting": "[2]; internal standard gene, rat liver, aRNA 400 ng vs 100 ng, Deposition Time 5 min. both", "value": 1.0},
      {"measurement": "Ratio (Phenobal/Control), Gene a", "setting": "[2]; [7]", "value": 2.6},
      {"measurement": "Ratio (Phenobal/Control), Gene b", "setting": "[2]; [7]", "value": 4.1},
      {"measurement": "Ratio (Phenobal/Control), Gene c", "setting": "[2]; [7]", "value": 0.7},
      {"measurement": "Ratio (Phenobal/Control), Gene d", "setting": "[2]; [7]", "value": 1.6},
      {"measurement": "Ratio (Phenobal/Control), Gene e", "setting": "[2]; [7]", "value": 0.2},
      {"measurement": "Ratio (Phenobal/Control), Gene f", "setting": "[2]; [7]", "value": 1.6},
      {"measurement": "Raw Data (spot signal intensity), Gene A", "setting": "[3]; [8]", "value": 680},
      {"measurement": "Raw Data (spot signal intensity), Gene B", "setting": "[3]; [8]", "value": 750},
      {"measurement": "Raw Data (spot signal intensity), Gene C", "setting": "[3]; [8]", "value": 250},
      {"measurement": "Raw Data (spot signal intensity), Gene D", "setting": "[3]; [8]", "value": 2800},
      {"measurement": "Raw Data (spot signal intensity), Gene E", "setting": "[3]; [8]", "value": 500},
      {"measurement": "Raw Data (spot signal intensity), Gene F", "setting": "[3]; [8]", "value": 60},
      {"measurement": "Raw Data (spot signal intensity), Gene GAPDH", "setting": "[3]; internal standard gene, Phenobal group rat liver, aRNA 400 ng, Deposition Time 2 min.", "value": 2500},
      {"measurement": "Ratio (Phenobal/Control), Gene GAPDH", "setting": "[3]; internal standard gene, rat liver, aRNA 400 ng vs 100 ng, Deposition Time 2 min. vs 7 min.", "value": 1.0},
      {"measurement": "Ratio (Phenobal/Control), Gene A", "setting": "[3]; [9]", "value": 1.8},
      {"measurement": "Ratio (Phenobal/Control), Gene B", "setting": "[3]; [9]", "value": 2.8},
      {"measurement": "Ratio (Phenobal/Control), Gene C", "setting": "[3]; [9]", "value": 0.5},
      {"measurement": "Ratio (Phenobal/Control), Gene D", "setting": "[3]; [9]", "value": 1.9},
      {"measurement": "Ratio (Phenobal/Control), Gene E", "setting": "[3]; [9]", "value": 0.2},
      {"measurement": "Ratio (Phenobal/Control), Gene F", "setting": "[3]; [9]", "value": 1.2}
    ]}
  ]
}
